# Patent US9598451B2, “Bis-organometallic 2-amino-3-hydroxy-2-methylpropanenitrile derivatives for use as anthelmintics” (UNIVERSITÄT ZÜRICH, priority 2013, dated 2017)
# pIC50: −log10 of the molar value.
# How the values were obtained:
# Type in all cases: cell-based
# [1] = tested on: human cervical cancer HeLa; assay: fluorometric cell viability assay (Resazurin), HeLa; conditions: HeLa cells, treated for 2 days
# Method: (§1) Cell Culture: Human cervical carcinoma cells (HeLa) were cultured in DMEM (Gibco) supplemented with 5% fetal calf serum (FCS, Gibco), 100 U/ml penicillin, 100 μg/ml streptomycin at 37° C. and 5% CO2. The normal human fetal lung fibroblast MRC-5 cell line was maintained in F-10 medium (Gibco) supplemented with 10% FCS (Gibco), 200 mmol/l L-Glutamine, 100 U/ml penicillin, and 100 μg/ml streptomycin at 37° C. and 5% CO2. To establish the anticancer potential of the compounds they were tested in one cell line, namely HeLa by a fluorometric cell viability assay using Resazurin (Promocell GmbH). Compounds showing cytotoxicity were then tested on normal MRC-5 cells. 1 day before treatment, cells were plated in triplicates in 96-well plates at a density of 4×10^3 cells/well in 100μl for HeLa and 7×10^3 cells/well for MRC-5 cells. Cells were treated with increasing concentrations of the compounds for 2 days. After 2 days, medium and drug were removed and […] fresh medium containing Resazurin (0.2 mg/ml final concentration) were added. After 4h of incubation at 37° C., the highly red fluorescent dye resorufin's fluorescence was quantified at 590 nm emission with 540 nm excitation wavelength in the SpectraMax M5 microplate Reader. […]
# [2] = tested on: human lung fibroblasts MRC-5; assay: fluorometric cell viability assay (Resazurin), MRC-5; conditions: MRC-5 cells, treated for 2 days
# Method: as §1
# [3] = tested on: C. elegans; assay: C. elegans movement inhibition assay; conditions: for mobility of the C. elegans worms: 50 μM, result in words
# Method: C. elegans movement inhibition assay: Asynchronous N2 C. elegans worms (Bristol) were maintained on nematode growth medium (NGM) agar, seeded with a lawn on OP50 E. coli as a food-source, according to standard protocol (Maintenance of C. elegans; Stiernagle, T., Ed.; WormBook, 2006.). Worms were harvested from NGM plates by washing with M9 buffer (42 mmol/l Na2HPO4, 86 mmol/l NaCl and 1 mmol/l MgSO4), aspiration and collection in a 10 mL tube (Falcon). The average number of worms in 5 μL of this suspension was calculated by transferring 4×5 μL aliquots to a glass slide (Menzel Glaser), and worms were enumerated under a compound microscope (Olympus CH30). To adjust the suspension to contain 1 worm per μL, M9 buffer was either added or removed after pelleting worms at 600×g for 30 sec.
# Dilution of test compounds, Zolvix (monepantel) and DMSO for working stock solutions and 96 well plate set-up for liquid screen: A volume of […] buffer was added to each well in a 96-well plate, using a multichannel pipettor. A volume of 20μL of worm suspension was added to each well using a single-channel pipettor, with a trimmed pipette tip (increased aperture to minimize damage to worms). The worm suspension was resuspended by flicking after every three wells to maintain consistency. The compounds were stored at 4° C., and diluted in dimethyl sulfoxide (DMSO) to achieve a 100 mmol/l concentration 1 hr prior to addition to assay. These stock solutions were diluted further in DMSO to create a series of 20 mmol/l, […] and 0.002 mmol/l which were subsequently diluted 1:20 in M9 buffer to create 1 mmol/l, 0.1 mmol/l, 1 μmol/l and 0.1 μmol/l (all 5% (v/v) DMSO). […] A Zolvix (monepantel) dilution series was simultaneously created following the same dilution schema, and used as a positive control; 10 μL of 10% DMSO was added to achieve 1% DMSO vehicle control. 10 μL M9 was added to negative control wells (see FIG. 1). Plates were incubated at […]
# Quantitative worm mobility scoring: Immobile worms were counted as a percentage of total worms in each well using an Olympus SZ30 dissecting microscope. The immobile fraction was subtracted from the total, and this remainder was divided by the total to give a percentage of live worms per well. Descriptive and inferential statistics were deferred until further replicates are performed.
# [4] = tested on: H. contortus; assay: larval development assay (number of L3)
# Method: In vitro experiments can be conducted by testing compounds in a larval development assay. To do this, sheep are infected with infective third-stage larvae (L3) of species of Haemonchus, Trichstrongylus, Teledorsagia, Cooperia, Oesophagostomum or Chabertia. Faeces from these sheep are collected and used for experiments; ˜100 g of faeces are crushed homogenized and suspended in ˜1000 ml of sugar solution (specific gravity 1.2), put through a ‘tea strainer’ sieve, and the large undigested food material in the sieve discarded. The sugar solution is then placed into a flat dish and strips of plastic overhead transparency film placed on the surface. The plastic is left for at least 45 minutes to allow the eggs to stick and then removed carefully. The eggs are collected by washing them from the plastic film, with water, into a 50 ml centrifuge tube. The water containing egg suspension eggs is put through a […] to remove further plant material and then centrifuged at 1,000×g for 10 minutes. The supernatant is checked for eggs and then discarded as the majority of eggs are at the bottom of the tube. These eggs are collected in 1 ml of water and diluted to ˜200 eggs/20 ml. • 1. […] Following 7 days additional incubation, the numbers of L3 larvae that had developed in each well is determined.
Substance,pIC50 [1],pIC50 [2],Mobility in C. elegans at 50 μM [3] [%],mobility of the C. elegans worms [3],Number of L3 H. contortus/100 μM [4]
2-Cyano-2-(ruthenocenecarboxamido)propyl ruthenocnecarboxylate [Compound 2a],< 4.00,< 4.00,–,–,–
2-Ferroceneamido-2-cyanopropyl ferrocenate [Compound 2],< 4.00,4.61,22,reduced,>100
N-(1-(ferrocenyloxy)-2-cyanopropan-2-yl)ferroceneamide [Compound 1],–,–,25,reduced,94.7
